Laboratory results published in US20050267221A1, “Use of curcumin and analogues thereof as inhibitors of ACC2” (Research Development Foundation, priority 2004, published 2005).

Columns and labels:
[1] = target: recombinant human ACC2 (Homo sapiens, UniProt O00763); assay: Radioactive assay of ACC2 activity ([14C]KHCO3 incorporation into malonyl-CoA); assay type: biochemical
Method: The reaction mixture contained 50 mM HEPES, pH 7.5, 2.5 mM MnCl2, 2.0 mM DTT, 0.125 mM acetyl-CoA, 4.0 mM ATP, 12.5 mM [^14C]KHCO3 (4×10^6 dpm), 0.75 mg/mL BSA, 10 mM tripotassium citrate and 0.1-0.2 μg ACC enzyme, in a total volume of 150 μL. The reaction was initiated by the addition of ACC2 and the assay was carried out at 37° C. for 2-7 min. The reaction was stopped by the addition of 50 μL of 6 N HCl. Subsequently, 150 μL was transferred into a glass scintillation vial and evaporated to dryness by heating to 85° C. in a heating block for 1 hour. The dried vials were cooled, 0.5 mL of water and 5 mL of ScintiSafe™ 30% were added, and the radioactivity was determined in a Beckman liquid scintillation counter (LS 3801). The tubes, where HCl was added before the addition of acetyl-CoA carboxylase, served as blanks. Avicin G and curcumin inhibitors were made up as stock solutions in water and DMSO, respectively, and added to the assay at the indicated concentrations such that the DMSO concentration was 1% (v/v). All reactions were performed in duplicate. Enzyme activity was based on radioactivity detected in malonyl-CoA and the dpm's set to 100% activity in the absence of any test compound. Inhibition by 1% (v/v) DMSO which was 16% was subtracted from values obtained in the dose response study.
A dose-response series was conducted with curcumin (in DMSO) to verify a classical inhibition pattern. In this study, all curcumin concentrations were added in 1% (v/v) DMSO and the enzyme activity measured.
The radioactive assay (as described in Example 3) was used to determine effects of the test compounds, avicin G and curcumin, on human acetyl-CoA carboxylase 2.

[2] = cited from earlier work

recombinant human ACC2, sequence (O00763 whole entry): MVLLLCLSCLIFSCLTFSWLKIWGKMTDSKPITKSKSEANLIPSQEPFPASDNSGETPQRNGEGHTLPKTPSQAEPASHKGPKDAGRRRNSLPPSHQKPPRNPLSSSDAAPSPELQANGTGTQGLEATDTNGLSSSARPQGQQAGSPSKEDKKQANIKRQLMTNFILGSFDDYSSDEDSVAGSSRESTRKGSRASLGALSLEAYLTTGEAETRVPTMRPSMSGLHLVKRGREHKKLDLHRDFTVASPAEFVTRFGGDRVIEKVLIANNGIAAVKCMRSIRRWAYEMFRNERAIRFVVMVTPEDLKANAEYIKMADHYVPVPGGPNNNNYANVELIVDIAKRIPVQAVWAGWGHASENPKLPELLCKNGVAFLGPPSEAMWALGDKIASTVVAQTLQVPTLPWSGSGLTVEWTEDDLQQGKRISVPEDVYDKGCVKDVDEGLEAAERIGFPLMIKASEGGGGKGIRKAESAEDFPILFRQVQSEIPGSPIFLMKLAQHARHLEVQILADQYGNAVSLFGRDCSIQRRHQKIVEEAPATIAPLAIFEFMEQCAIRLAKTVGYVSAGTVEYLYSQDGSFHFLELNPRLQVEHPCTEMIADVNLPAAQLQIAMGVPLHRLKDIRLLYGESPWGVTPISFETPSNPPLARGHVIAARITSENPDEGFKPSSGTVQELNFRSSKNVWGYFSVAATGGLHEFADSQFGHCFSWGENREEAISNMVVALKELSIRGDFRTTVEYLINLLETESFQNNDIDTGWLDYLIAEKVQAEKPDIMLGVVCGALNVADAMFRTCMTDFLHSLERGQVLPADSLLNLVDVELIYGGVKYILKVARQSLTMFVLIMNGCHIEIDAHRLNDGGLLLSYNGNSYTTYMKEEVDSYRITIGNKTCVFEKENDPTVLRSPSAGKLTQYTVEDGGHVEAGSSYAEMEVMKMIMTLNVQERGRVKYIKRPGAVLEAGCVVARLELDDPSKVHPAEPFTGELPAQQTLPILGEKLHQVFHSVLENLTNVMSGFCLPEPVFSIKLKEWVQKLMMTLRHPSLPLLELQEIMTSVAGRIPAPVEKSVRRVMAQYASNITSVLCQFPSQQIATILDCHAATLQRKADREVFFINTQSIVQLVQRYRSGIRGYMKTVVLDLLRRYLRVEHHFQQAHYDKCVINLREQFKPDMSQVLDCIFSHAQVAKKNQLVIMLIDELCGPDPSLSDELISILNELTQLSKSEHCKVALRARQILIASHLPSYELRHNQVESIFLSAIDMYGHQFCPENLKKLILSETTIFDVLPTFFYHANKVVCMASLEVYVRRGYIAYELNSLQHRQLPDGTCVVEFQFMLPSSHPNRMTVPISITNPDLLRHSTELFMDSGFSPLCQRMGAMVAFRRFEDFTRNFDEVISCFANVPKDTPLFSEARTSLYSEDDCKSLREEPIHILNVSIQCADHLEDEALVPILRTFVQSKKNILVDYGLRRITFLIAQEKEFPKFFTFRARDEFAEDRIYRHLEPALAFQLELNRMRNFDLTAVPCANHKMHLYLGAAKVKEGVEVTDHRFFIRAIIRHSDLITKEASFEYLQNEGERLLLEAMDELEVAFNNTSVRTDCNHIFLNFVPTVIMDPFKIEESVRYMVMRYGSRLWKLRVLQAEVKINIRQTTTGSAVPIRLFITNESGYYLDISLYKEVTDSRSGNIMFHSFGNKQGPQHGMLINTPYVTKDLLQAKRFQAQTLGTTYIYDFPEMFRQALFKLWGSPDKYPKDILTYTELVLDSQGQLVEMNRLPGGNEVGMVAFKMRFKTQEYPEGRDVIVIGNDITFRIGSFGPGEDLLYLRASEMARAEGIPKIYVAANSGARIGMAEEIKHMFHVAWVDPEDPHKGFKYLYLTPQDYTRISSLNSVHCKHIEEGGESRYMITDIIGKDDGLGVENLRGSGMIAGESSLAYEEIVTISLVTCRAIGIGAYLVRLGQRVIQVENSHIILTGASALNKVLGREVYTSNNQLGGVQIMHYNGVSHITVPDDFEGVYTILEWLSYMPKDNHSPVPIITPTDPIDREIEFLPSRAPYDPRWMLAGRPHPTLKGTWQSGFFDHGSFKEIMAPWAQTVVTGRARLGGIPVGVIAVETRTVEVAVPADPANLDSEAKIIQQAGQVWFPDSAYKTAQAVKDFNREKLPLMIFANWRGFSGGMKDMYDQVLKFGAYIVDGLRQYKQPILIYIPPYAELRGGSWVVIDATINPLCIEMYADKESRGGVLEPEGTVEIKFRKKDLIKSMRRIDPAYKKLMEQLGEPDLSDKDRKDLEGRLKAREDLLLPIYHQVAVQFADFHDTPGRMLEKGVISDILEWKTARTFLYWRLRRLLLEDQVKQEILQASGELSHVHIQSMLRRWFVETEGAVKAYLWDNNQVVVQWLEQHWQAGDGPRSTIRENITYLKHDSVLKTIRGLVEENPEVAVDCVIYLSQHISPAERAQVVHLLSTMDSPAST

Row | ACC Activity (%) ± S.D. ([1]; human ACC2, additive at 50 μM, curcumin in 1% (v/v) DMSO final, activity without test compound = 100%, duplicate) | dose-response inhibition of ACC2 (in words) ([1]; human ACC2, dose-response series, all concentrations in 1% (v/v) DMSO, FIG. 1) | effect on ACC2 activity (in words) ([1]; recombinant human ACC2, radioactive assay, conditions of Table 1) | activity at 50 µM ([1]; human ACC2, additive at 50 μM, curcumin in 1% (v/v) DMSO final, activity without test compound = 100%, duplicate, read-out: ACC Activity (%) ± S.D.) | Structure (SMILES) | solubility in dimethylsulfoxide ([2]; dimethylsulfoxide) | solubility in ethanol ([2]; ethanol) | solubility in ether ([2]; ether) | solubility in water ([2]; water)
1 | 106 ± 7% | No significant inhibition | no significant effect | – | C=C[C@](C)(O)CC/C=C(\C)C(=O)O[C@H]1[C@H](O)[C@@H](O)[C@H](O[C@@](C)(C=C)CC/C=C(\CO)C(=O)O[C@H]2C[C@]3(C(=O)O[C@@H]4O[C@H](CO)[C@@H](O)[C@H](O)[C@H]4O[C@@H]4O[C@@H](C)[C@H](O[C@@H]5O[C@@H](CO)[C@H](O)[C@H]5O)[C@@H](O[C@@H]5O[C@H](CO)[C@@H](O)[C@H](O)[C@H]5O)[C@H]4O)[C@H](O)C[C@]4(C)C(=CC[C@@H]5[C@@]6(C)CC[C@H](O[C@@H]7O[C@H](CO[C@@H]8O[C@H](C)[C@H](O)[C@H](O)[C@H]8O[C@@H]8OC[C@@H](O)[C@H](O)[C@H]8O)[C@@H](O)[C@H](O)[C@H]7NC(C)=O)C(C)(C)[C@@H]6CC[C@]54C)[C@@H]3CC2(C)C)O[C@@H]1C [avicin G] | – | – | – | –
2 | – | – | – | 57 ± 3% | COc1cc(/C=C/C(=O)CC(=O)/C=C/c2ccc(O)c(OC)c2)ccc1O [curcumin, 1,7,-bis(4-hydroxy-3-methoxyphenyl)-1,6-heptadiene-3,5-dione] | soluble | soluble | insoluble | insoluble
